The record followed here is patent US20190117630A1, “METHODS AND DRUG COMPOSITIONS FOR TREATING LYME DISEASE” (priority 2016, published 2019).

Where a name gives a salt, the structure may show the parent alone. Some results are limits rather than exact numbers.

Assay [1] has as its system Bb. Conditions: C3H mouse model, urinary bladders, heart, ear skin.
Experimental: After the synergy was determined the efficacy of the drugs were studied in vivo in the following way: C3H/HeN mice of 4-6 week old were infected intradermally in the abdominal area with 0.1 ml of BSK-II medium containing 10^5 Bb with a 25G tuberculin syringe. […] Cultures were monitored up to 6 weeks for motile spirochetes using darkfield microscopy.
To evaluate the efficacy of the drugs in vivo, they were tested in a C3H mouse model.
Assay [2] concerns Borrelia cultures. Kind of assay: Secondary screening, Borrelia cell viability by BacTiter-Glo Assay. In kind it is cell-based, B. burgdorferi. To be noted: for efficacy (Borrelia cell viability assay): at 0.31 μM, FIG. 1B. Here is the method:
FIG. 1 depicts a Borrelia cell viability assay using agents (A) tetraethylthiuram disulfide, doxorubicin hydrochloride, and epirubicin hydrochloride and (B) azlocillin sodium and cephalothin sodium. The results represent mean±SD.
(§1) The Minimum Inhibitory Concentration (MIC) of the small molecules identified through screening was determined by culturing 10^6/ml Borrelia in BSK-II medium with different concentrations (0.3 μM to 160 μM) of drugs. For MIC, 1 ml cultures with respective drugs were grown in 48 well plates in triplicates, wrapped with paraffin film and placed for 72 hours at 33° C. in a humidified CO2 incubator (Forma Scientific, USA) having 5% CO2 and 95% air. Cell proliferation was assessed using bacterial counting chamber (Petroff-Hausser Counter, Horsham, Pa., USA) by phase contrast microscopy. In parallel cell proliferation was also assessed BacTiter-Glo™ Assay. The counting was performed in all the 25 squares of the central grid. The BacTiter-Glo™ Assay was performed by mixing 100 μl of culture in each well with 100 μl of BacTiter-Glo™ reagent (Promega, Madison, Wis., USA). Then, the assay was performed according to the manufacturer's instructions. Luminescence was measured on a Flex station3 micro-plate reader at luminescence 500 ms.
The viability of Borellia cultures was evaluated with BacTiter-Glo™ Assay.

The subject of assay [3] is Borrelia. Briefly: Determination of Minimum Bactericidal Concentration (MBC). The class given is cell-based, B. burgdorferi. To be noted: Borreliella burgdorferi, 504 h; sub-culture in fresh BSK-II medium for 21 days, no spirochete observed. As for the experimental part:
For determining minimum bactericidal concentration (MBC), 20 μl of the 10^6/ml Borrelia cultures grown in BSK-II medium for 72 hours at different drug concentrations were added to the fresh BSK-II medium and sub-cultured for 3 weeks. After 3 weeks of incubation period, the samples were observed microscopically for motile spirochetes in the culture. The MIC and MBC determinations were done thrice independently.
(§2) To confirm the efficacy of the screening MIC and MBC values were evaluated. The MIC is determined as the lowest concentration at which no motile spirochete is observed by microscopy. […] The MBC was determined by sub-culturing 20 μl of the Borrelia cultures grown at different drug concentrations in fresh BSK-II medium for 21 days. The MBC value was determined when no spirochete was observed microscopically in the culture.

Assay [4] has as its system doxycycline-tolerant Borrelia persisters. Briefly: Eradication of doxycycline-tolerant Bb persisters. In kind it is cell-based, B. burgdorferi. To be noted: 5 days, after doxycycline 2.5 μM to 40 μM for 3 days, FIG. 3B. As for the experimental part:
So to identify the drugs that kill drug-tolerant Borrelia persisters, 10^6/ml Borrelia in BSK-II medium was treated with concentrations of doxycycline ranging from 2.5 μM to 40 μM for 3 days. The doxycycline-tolerant persisters were treated with 20 μg and 40 μg Azlocillin for 5 days. After 5 days of treatment, the cultures were pelleted, washed and plated on semisolid BSK-II agarose plates for minimum 21 days. The plates were incubated for regrowth and colonies are counted. The study was performed thrice independently.

For assay [5], the system named is Borrelia. Kind of assay: Determination of Minimum Inhibitory Concentration (MIC). The class given is cell-based, B. burgdorferi. Conditions: Borreliella burgdorferi; 72 hours, lowest concentration with no motile spirochete by microscopy. Here is the method:
as §1, §2

Assay [6] concerns Borrelia isolate CA8 Bss. Kind of assay: Time-kill studies. In kind it is cell-based, B. burgdorferi sensu stricto. Conditions: 1.25 μM, CA8 strain. Here is the method: Time-kill studies were performed with Borrelia isolate CA8 Bss with azlocillin sodium and cefotaxime acid. To determine the rate of antimicrobial activity, 10^6/ml Borrelia cultures were grown in BSK-II medium with drugs at different concentrations. BSK-II medium with no drugs is used as a control. The antibacterial activity was determined by counting bacteria at 24 hours, 48 hours and 72 hours. The experiment was done once with triplicates.

For `CC1(C)S[C@@H]2[C@H](NC(=O)[C@H](NC(=O)N3CCNC3=O)c3ccccc3)C(=O)N2[C@H]1C(=O)O` [Azlocillin sodium], the “elimination of Borrelia infection in vivo (failure to culture live spirochetes from tissues after treatment)” value in assay [1] is on record as “very effective in eliminating Borrelia infection”. Further, the “efficacy (Borrelia cell viability assay)” value in assay [2] is around 99%. Further, the minimal bactericidal concentration (MBC) (usually the smallest concentration meeting the test's criterion for killing) in assay [3] was at most 10 µM. Further, the “elimination of doxycycline-tolerant Borrelia persisters” value in assay [4] (20 μg) and in assay [4] (40 μg) was “completely eliminated” in each case. In assay [5], this molecule gave an MIC of at most 3 µM.
Turning to `Cc1nnc(SCC2=C(C(=O)O)N3C(=O)[C@@H](NC(=O)Cn4cnnn4)[C@H]3SC2)s1` [Cefazolin sodium], in assay [5], the MIC was at most 3 µM.
As for `CO/N=C(\C(=O)N[C@@H]1C(=O)N2C(C(=O)O)=C(COC(C)=O)CS[C@H]12)c1csc(N)n1` [Cefotaxime acid], the “elimination of Borrelia infection in vivo (failure to culture live spirochetes from tissues after treatment)” value in assay [1] is “very effective in eliminating Borrelia infection”. The MBC in assay [3] was at most 10 µM. Further, in assay [6], the “decrease of initial Borrelia inoculum, time-kill” value was 1 log10-unit. Further, the “elimination of doxycycline-tolerant Borrelia persisters” value in assay [4] (40 μg) is “killed the Borrelia persisters completely”. In addition, the MIC in assay [5] is at most 3 µM.
On to `CC(=O)OCC1=C(C(=O)O)N2C(=O)[C@@H](NC(=O)Cc3cccs3)[C@H]2SC1` [Cephalothin sodium], for which the “efficacy (Borrelia cell viability assay)” value in assay [2] is recorded as around 99%. The molecule also displayed an MIC in assay [5] of at most 3 µM.
As for `COc1cccc2c1C(=O)c1c(O)c3c(c(O)c1C2=O)C[C@@](O)(C(=O)CO)C[C@@H]3O[C@H]1C[C@H](N)[C@H](O)[C@H](C)O1` [Doxorubicin hydrochloride], the “concentration uniformly effective against Bb” value in assay [2] (BacTiter-Glo Assay, FIG. 1A) is 0.625 µM. This molecule returned an MBC in assay [3] below 1.5 µM. In addition, the MIC in assay [5] is below 1 µM.
For the molecule `COc1cccc2c1C(=O)c1c(O)c3c(c(O)c1C2=O)C[C@@](O)(C(=O)CO)C[C@@H]3O[C@H]1C[C@H](N)[C@@H](O)[C@H](C)O1` [Epirubicin hydrochloride], the “concentration uniformly effective against Bb” value in assay [2] (BacTiter-Glo Assay, FIG. 1A) stood at 0.625 µM. Moreover, in assay [3], the MBC was below 1.5 µM. For the same molecule, the MIC in assay [5] was below 1 µM.
Molecule `CC(=O)[C@]1(O)Cc2c(O)c3c(c(O)c2[C@@H](O[C@H]2C[C@H](N)[C@H](O)[C@H](C)O2)C1)C(=O)c1ccccc1C3=O` [Idarubicin HCl] gave an MBC in assay [3] of at most 10 µM.
In assay [5], `CC(=O)NC[C@H]1CN(c2ccc(N3CCOCC3)c(F)c2)C(=O)O1` [Linezolide] yielded an MIC of at most 3 µM.
For the molecule `CCN(CC)C(=S)SSC(=S)N(CC)CC` [Tetraethylthiuram disulfide], the “concentration showing complete Borrelia cell inhibition” value in assay [2] (BacTiter-Glo Assay, FIG. 1A) worked out at 1.25 µM. The molecule also registered an MBC in assay [3] of at most 10 µM. For the same molecule, in assay [5], the MIC was at most 3 µM.
With `CO[C@@H]1[C@@H](O[C@@H]2O[C@H](C)[C@@H](O[C@H]3C[C@@](C)(O)[C@@H](OC(=O)CC(C)C)[C@H](C)O3)[C@H](N(C)C)[C@H]2O)[C@@H](CC=O)C[C@@H](C)[C@@H](O)/C=C/C=C/C[C@@H](C)OC(=O)C[C@H]1O` [leucomycin], the MBC in assay [3] was at most 10 µM.
